Data: the CheMixHub ionic liquid set
± gives the uncertainty stated by the source.

Assay: xn = mol fraction of the nth substance listed

CC(=O)Nc1ccc(O)cc1 + O + CCCC[n+]1ccn(C)c1.[Br-]
101 kPa, frequency 0.0003 MHz
Details | electrical conductivity [S/m]
293.15 K, x1 = 0.0005475, x3 = 1.14e-05 | 0.0067 ± 0.0039
293.15 K, x1 = 0.0005475, x3 = 1.628e-05 | 0.0094 ± 0.004
293.15 K, x1 = 0.001082, x3 = 4.9e-06 | 0.003 ± 0.0038
298.15 K, x1 = 0.0005475, x3 = 9.05e-06 | 0.0056 ± 0.004
298.15 K, x1 = 0.0005475, x3 = 1.447e-05 | 0.0085 ± 0.004
298.15 K, x1 = 0.001082, x3 = 5.63e-06 | 0.0034 ± 0.0039
298.15 K, x1 = 0.001082, x3 = 1.162e-05 | 0.0067 ± 0.0038
298.15 K, x1 = 0.001082, x3 = 1.635e-05 | 0.0092 ± 0.0039
303.15 K, x1 = 0.0005475, x3 = 5.43e-06 | 0.0036 ± 0.0041
303.15 K, x1 = 0.0005475, x3 = 1.158e-05 | 0.0071 ± 0.0037
303.15 K, x1 = 0.001082, x3 = 5.09e-06 | 0.0032 ± 0.0039
303.15 K, x1 = 0.001082, x3 = 1.162e-05 | 0.0067 ± 0.0037
303.15 K, x1 = 0.001082, x3 = 1.617e-05 | 0.0091 ± 0.0039
308.15 K, x1 = 0.0005475, x3 = 2.71e-06 | 0.0025 ± 0.0049
308.15 K, x1 = 0.0005475, x3 = 9.41e-06 | 0.0073 ± 0.0045
308.15 K, x1 = 0.001082, x3 = 5.63e-06 | 0.0038 ± 0.0042
308.15 K, x1 = 0.001082, x3 = 1.199e-05 | 0.0075 ± 0.0038

CC(=O)Nc1ccc(O)cc1 + O + CCCC[n+]1ccn(C)c1.[Cl-]
101 kPa, frequency 0.0003 MHz
Details | electrical conductivity [S/m]
293.15 K, x1 = 0.0005511, x3 = 5.07e-06 | 0.0028 ± 0.0035
293.15 K, x1 = 0.0005511, x3 = 8.5e-06 | 0.0044 ± 0.0034
293.15 K, x1 = 0.0005511, x3 = 1.194e-05 | 0.0061 ± 0.0034
293.15 K, x1 = 0.0005511, x3 = 1.61e-05 | 0.0081 ± 0.0034
293.15 K, x1 = 0.0005511, x3 = 1.954e-05 | 0.0096 ± 0.0034
293.15 K, x1 = 0.001084, x3 = 4.54e-06 | 0.0025 ± 0.0031
293.15 K, x1 = 0.001084, x3 = 7.63e-06 | 0.0038 ± 0.003
293.15 K, x1 = 0.001084, x3 = 1.144e-05 | 0.0055 ± 0.003
293.15 K, x1 = 0.001084, x3 = 1.471e-05 | 0.0067 ± 0.0031
293.15 K, x1 = 0.001084, x3 = 1.907e-05 | 0.0086 ± 0.003
298.15 K, x1 = 0.0005511, x3 = 2.53e-06 | 0.0016
298.15 K, x1 = 0.0005511, x3 = 4.16e-06 | 0.0025 ± 0.0038
298.15 K, x1 = 0.0005511, x3 = 6.69e-06 | 0.0039 ± 0.0037
298.15 K, x1 = 0.0005511, x3 = 8.87e-06 | 0.005 ± 0.0037
298.15 K, x1 = 0.0005511, x3 = 1.122e-05 | 0.0062 ± 0.0037
298.15 K, x1 = 0.0005511, x3 = 1.285e-05 | 0.007 ± 0.0037
298.15 K, x1 = 0.0005511, x3 = 1.701e-05 | 0.009 ± 0.0036
298.15 K, x1 = 0.001084, x3 = 4.54e-06 | 0.0028 ± 0.0036
298.15 K, x1 = 0.001084, x3 = 8.36e-06 | 0.0046 ± 0.0035
298.15 K, x1 = 0.001084, x3 = 1.235e-05 | 0.0065 ± 0.0035
298.15 K, x1 = 0.001084, x3 = 1.962e-05 | 0.0099 ± 0.0034
303.15 K, x1 = 0.0005511, x3 = 3.44e-06 | 0.0022 ± 0.0039
303.15 K, x1 = 0.0005511, x3 = 5.79e-06 | 0.0035 ± 0.0039
303.15 K, x1 = 0.0005511, x3 = 9.23e-06 | 0.0054 ± 0.0038
303.15 K, x1 = 0.0005511, x3 = 1.737e-05 | 0.0097 ± 0.0038
303.15 K, x1 = 0.001084, x3 = 2.72e-06 | 0.0018
303.15 K, x1 = 0.001084, x3 = 1.217e-05 | 0.0067 ± 0.0037
303.15 K, x1 = 0.001084, x3 = 1.726e-05 | 0.0092 ± 0.0037
308.15 K, x1 = 0.0005511, x3 = 3.98e-06 | 0.0028 ± 0.0043
308.15 K, x1 = 0.0005511, x3 = 7.6e-06 | 0.0049 ± 0.0042
308.15 K, x1 = 0.0005511, x3 = 1.031e-05 | 0.0065 ± 0.0041
308.15 K, x1 = 0.001084, x3 = 4.18e-06 | 0.0028 ± 0.0041
308.15 K, x1 = 0.001084, x3 = 8.36e-06 | 0.005 ± 0.004
308.15 K, x1 = 0.001084, x3 = 1.235e-05 | 0.0072 ± 0.004
308.15 K, x1 = 0.001084, x3 = 1.689e-05 | 0.0097 ± 0.004

CC[n+]1ccn(C)c1.O=S(=O)([N-]S(=O)(=O)C(F)(F)F)C(F)(F)F + O=C1CCCO1
100 kPa, frequency 0.005 MHz
Details | electrical conductivity [S/m]
293.15 K, x2 = 0 | 0.774 ± 0.023
293.15 K, x2 = 0.3005 | 1.17 ± 0.035
293.15 K, x2 = 0.5101 | 1.47 ± 0.044
293.15 K, x2 = 0.9005 | 1.58 ± 0.048
293.15 K, x2 = 0.95 | 1.13 ± 0.037
298.15 K, x2 = 0.2073 | 1.19 ± 0.036
303.15 K, x2 = 0 | 1.06 ± 0.032
303.15 K, x2 = 0.2073 | 1.34 ± 0.04
303.15 K, x2 = 0.3005 | 1.47 ± 0.044
303.15 K, x2 = 0.5101 | 1.79 ± 0.054
303.15 K, x2 = 0.7 | 2.07 ± 0.062
303.15 K, x2 = 0.7994 | 2.09 ± 0.063
303.15 K, x2 = 0.8498 | 2.06 ± 0.062
303.15 K, x2 = 0.95 | 1.32 ± 0.043
308.15 K, x2 = 0 | 1.2 ± 0.036
308.15 K, x2 = 0.7994 | 2.25 ± 0.068
313.15 K, x2 = 0 | 1.35 ± 0.041
313.15 K, x2 = 0.3005 | 1.77 ± 0.053
318.15 K, x2 = 0.2073 | 1.82 ± 0.055
318.15 K, x2 = 0.5101 | 2.31 ± 0.069
318.15 K, x2 = 0.95 | 1.59 ± 0.052
323.15 K, x2 = 0.2073 | 2.04 ± 0.061
323.15 K, x2 = 0.6 | 2.69 ± 0.081

CC[n+]1ccn(C)c1.O=S(=O)([N-]S(=O)(=O)C(F)(F)F)C(F)(F)F + O=C1OCCO1
100 kPa, x2 = 0
Details | viscosity [mPa·s]
383.15 K | 4.2 ± 0.4
393.15 K | 3.7 ± 0.4

C[N+](C)(C)Cc1ccccc1.[Cl-] + O=C([O-])C1=NN(c2ccc(S(=O)(=O)[O-])cc2)C(=O)C1N=Nc1ccc(S(=O)(=O)[O-])cc1.[Na+].[Na+].[Na+] + O
electrical conductivity [S/m], 101.3 kPa, frequency 0.001 MHz
Details | 298.15 K | 308.15 K | 318.15 K
x2 = 0, x1 = 1.802e-05 | 0.0137 ± 0.0052 | 0.0183 ± 0.0062 | 0.0233 ± 0.0077
x2 = 0, x1 = 5.406e-05 | 0.0295 ± 0.0056 | 0.0398 ± 0.0071 | 0.0456 ± 0.0084
x2 = 0, x1 = 9.009e-05 | 0.0457 ± 0.0069 | 0.0565 ± 0.0079 | 0.0643 ± 0.0094

viscosity [mPa·s], 101.3 kPa
Details | 298.15 K | 308.15 K | 318.15 K
x2 = 0, x1 = 1.802e-05 | 0.88 ± 0.045 | 0.726 ± 0.044 | 0.611 ± 0.044
x2 = 0, x1 = 5.406e-05 | 0.897 ± 0.045 | 0.747 ± 0.044 | 0.627 ± 0.044
x2 = 0, x1 = 9.009e-05 | 0.914 ± 0.045 | 0.766 ± 0.045 | 0.646 ± 0.044

C[N+](C)(C)Cc1ccccc1.[Cl-] + O=C([O-])c1ccccc1.[Na+] + O
viscosity [mPa·s], 100 kPa
Details | 298.15 K | 303.15 K | 308.15 K | 313.15 K | 318.15 K
x1 = 9.698e-05, x2 = 0.001545 | 0.924 ± 0.02 | 0.835 ± 0.018 | 0.753 ± 0.017 | 0.654 ± 0.015 | 0.566 ± 0.013
x1 = 9.701e-05, x2 = 0.00127 | 0.919 ± 0.02 | 0.829 ± 0.018 | 0.748 ± 0.017 | 0.65 ± 0.015 | 0.562 ± 0.013
x1 = 9.703e-05, x2 = 0.0009982 | 0.913 ± 0.02 | 0.823 ± 0.018 | 0.742 ± 0.017 | 0.645 ± 0.015 | 0.558 ± 0.013
x1 = 9.706e-05, x2 = 0.0007245 | 0.906 ± 0.02 | 0.817 ± 0.018 | 0.737 ± 0.016 | 0.64 ± 0.014 | 0.552 ± 0.013
x1 = 9.709e-05, x2 = 0.0004525 | 0.901 ± 0.02 | 0.812 ± 0.018 | 0.731 ± 0.016 | 0.635 ± 0.014 | 0.548 ± 0.013
x1 = 9.711e-05, x2 = 0.0001803 | 0.896 ± 0.02 | 0.807 ± 0.018 | 0.726 ± 0.016 | 0.629 ± 0.014 | 0.544 ± 0.012
x1 = 0.0002915, x2 = 0.001548 | 0.927 ± 0.02 | 0.84 ± 0.019 | 0.758 ± 0.017 | 0.652 ± 0.015 | 0.562 ± 0.013
x1 = 0.0002916, x2 = 0.001 | 0.915 ± 0.02 | 0.827 ± 0.018 | 0.747 ± 0.017 | 0.64 ± 0.014 | 0.554 ± 0.013
x1 = 0.0002916, x2 = 0.001272 | 0.92 ± 0.02 | 0.833 ± 0.018 | 0.752 ± 0.017 | 0.647 ± 0.015 | 0.559 ± 0.013
x1 = 0.0002917, x2 = 0.0007258 | 0.909 ± 0.02 | 0.821 ± 0.018 | 0.74 ± 0.016 | 0.637 ± 0.014 | 0.55 ± 0.013
x1 = 0.0002918, x2 = 0.0004533 | 0.902 ± 0.02 | 0.816 ± 0.018 | 0.735 ± 0.016 | 0.631 ± 0.014 | 0.544 ± 0.012
x1 = 0.0002919, x2 = 0.0001807 | 0.898 ± 0.02 | 0.812 ± 0.018 | 0.731 ± 0.016 | 0.626 ± 0.014 | 0.54 ± 0.012
x1 = 0.0004867, x2 = 0.001551 | 0.932 ± 0.02 | 0.843 ± 0.019 | 0.76 ± 0.017 | 0.665 ± 0.015 | 0.577 ± 0.013
x1 = 0.0004868, x2 = 0.001275 | 0.926 ± 0.02 | 0.837 ± 0.018 | 0.754 ± 0.017 | 0.66 ± 0.015 | 0.573 ± 0.013
x1 = 0.0004869, x2 = 0.001002 | 0.919 ± 0.02 | 0.831 ± 0.018 | 0.748 ± 0.017 | 0.655 ± 0.015 | 0.569 ± 0.013
x1 = 0.0004871, x2 = 0.0007272 | 0.913 ± 0.02 | 0.826 ± 0.018 | 0.743 ± 0.017 | 0.649 ± 0.015 | 0.563 ± 0.013
x1 = 0.0004872, x2 = 0.0004542 | 0.908 ± 0.02 | 0.82 ± 0.018 | 0.737 ± 0.016 | 0.645 ± 0.015 | 0.559 ± 0.013
x1 = 0.0004873, x2 = 0.000181 | 0.903 ± 0.02 | 0.815 ± 0.018 | 0.733 ± 0.016 | 0.64 ± 0.014 | 0.555 ± 0.013
